Measured values from the NIST ThermoML archive (doi:10.1016/j.jct.2014.05.016).

Test: xn = mol fraction of the nth substance listed
Settings: 100 kPa, Liquid; for viscosity: Concentric cylinders viscometry; for mass density: Vibrating tube method

CCCC[n+]1ccccc1.F[B-](F)(F)F [1-butylpyridinium tetrafluoroborate] + CCCCn1cc[n+](C)c1.F[B-](F)(F)F
Settings | mass density [kg/m3] | viscosity [mPa·s]
293.15 K, x2 = 0 | 1216.6 | 228.9
293.15 K, x2 = 0.1007 | 1215.4 | –
293.15 K, x2 = 0.1009 | – | 219.4
293.15 K, x2 = 0.2004 | 1214.3 | –
293.15 K, x2 = 0.2005 | – | 209.3
293.15 K, x2 = 0.3001 | 1213.1 | –
293.15 K, x2 = 0.3003 | – | 199.5
293.15 K, x2 = 0.4001 | – | 190
293.15 K, x2 = 0.4004 | 1211.7 | –
293.15 K, x2 = 0.4999 | – | 180.9
293.15 K, x2 = 0.5009 | 1210.6 | –
293.15 K, x2 = 0.6004 | 1209.4 | –
293.15 K, x2 = 0.6007 | – | 172.5
293.15 K, x2 = 0.7004 | – | 163.9
293.15 K, x2 = 0.7013 | 1208.1 | –
293.15 K, x2 = 0.8001 | – | 156.9
293.15 K, x2 = 0.8007 | 1206.7 | –
293.15 K, x2 = 0.8987 | 1205.5 | –
293.15 K, x2 = 0.8998 | – | 148.7
298.15 K, x2 = 0 | 1213.1 | 166.9
298.15 K, x2 = 0.1007 | 1211.9 | –
298.15 K, x2 = 0.1009 | – | 160.8
298.15 K, x2 = 0.2004 | 1210.8 | –
298.15 K, x2 = 0.2005 | – | 153.7
298.15 K, x2 = 0.3001 | 1209.6 | –
298.15 K, x2 = 0.3003 | – | 147.1
298.15 K, x2 = 0.4001 | – | 140.8
298.15 K, x2 = 0.4004 | 1208.2 | –
298.15 K, x2 = 0.4999 | – | 134.6
298.15 K, x2 = 0.5009 | 1207.1 | –
298.15 K, x2 = 0.6004 | 1205.8 | –
298.15 K, x2 = 0.6007 | – | 128.8
298.15 K, x2 = 0.7004 | – | 123.1
298.15 K, x2 = 0.7013 | 1204.5 | –
298.15 K, x2 = 0.8001 | – | 117.9
298.15 K, x2 = 0.8007 | 1203.1 | –
298.15 K, x2 = 0.8987 | 1202 | –
298.15 K, x2 = 0.8998 | – | 112.7
303.15 K, x2 = 0 | 1209.6 | 124.5
303.15 K, x2 = 0.1007 | 1208.4 | –
303.15 K, x2 = 0.1009 | – | 120.4
303.15 K, x2 = 0.2004 | 1207.3 | –
303.15 K, x2 = 0.2005 | – | 115.6
303.15 K, x2 = 0.3001 | 1206.1 | –
303.15 K, x2 = 0.3003 | – | 111.1
303.15 K, x2 = 0.4001 | – | 106.9
303.15 K, x2 = 0.4004 | 1204.7 | –
303.15 K, x2 = 0.4999 | – | 102.5
303.15 K, x2 = 0.5009 | 1203.6 | –
303.15 K, x2 = 0.6004 | 1202.3 | –
303.15 K, x2 = 0.6007 | – | 98.69
303.15 K, x2 = 0.7004 | – | 94.64
303.15 K, x2 = 0.7013 | 1201 | –
303.15 K, x2 = 0.8001 | – | 90.99
303.15 K, x2 = 0.8007 | 1199.6 | –
303.15 K, x2 = 0.8987 | 1198.4 | –
303.15 K, x2 = 0.8998 | – | 87.26
308.15 K, x2 = 0 | 1206.2 | 94.97
308.15 K, x2 = 0.1007 | 1204.9 | –
308.15 K, x2 = 0.1009 | – | 92.11
308.15 K, x2 = 0.2004 | 1203.8 | –
308.15 K, x2 = 0.2005 | – | 88.99
308.15 K, x2 = 0.3001 | 1202.6 | –
308.15 K, x2 = 0.3003 | – | 85.73
308.15 K, x2 = 0.4001 | – | 82.59
308.15 K, x2 = 0.4004 | 1201.2 | –
308.15 K, x2 = 0.4999 | – | 79.65
308.15 K, x2 = 0.5009 | 1200.1 | –
308.15 K, x2 = 0.6004 | 1198.8 | –
308.15 K, x2 = 0.6007 | – | 76.79
308.15 K, x2 = 0.7004 | – | 73.92
308.15 K, x2 = 0.7013 | 1197.5 | –
308.15 K, x2 = 0.8001 | – | 71.3
308.15 K, x2 = 0.8007 | 1196.1 | –
308.15 K, x2 = 0.8987 | 1194.9 | –
308.15 K, x2 = 0.8998 | – | 68.74
313.15 K, x2 = 0 | 1202.8 | 73.94
313.15 K, x2 = 0.1007 | 1201.5 | –
313.15 K, x2 = 0.1009 | – | 71.92
313.15 K, x2 = 0.2004 | 1200.4 | –
313.15 K, x2 = 0.2005 | – | 69.59
313.15 K, x2 = 0.3001 | 1199.2 | –
313.15 K, x2 = 0.3003 | – | 67.3
313.15 K, x2 = 0.4001 | – | 65.09
313.15 K, x2 = 0.4004 | 1197.8 | –
313.15 K, x2 = 0.4999 | – | 62.92
313.15 K, x2 = 0.5009 | 1196.6 | –
313.15 K, x2 = 0.6004 | 1195.3 | –
313.15 K, x2 = 0.6007 | – | 61
313.15 K, x2 = 0.7004 | – | 58.91
313.15 K, x2 = 0.7013 | 1193.9 | –
313.15 K, x2 = 0.8001 | – | 56.91
313.15 K, x2 = 0.8007 | 1192.6 | –
313.15 K, x2 = 0.8987 | 1191.4 | –
313.15 K, x2 = 0.8998 | – | 54.99
318.15 K, x2 = 0 | – | 58.64
318.15 K, x2 = 0.1009 | – | 57.19
318.15 K, x2 = 0.2005 | – | 55.49
318.15 K, x2 = 0.3003 | – | 53.81
318.15 K, x2 = 0.4001 | – | 52.19
318.15 K, x2 = 0.4999 | – | 50.59
318.15 K, x2 = 0.6007 | – | 49.12
318.15 K, x2 = 0.7004 | – | 47.51
318.15 K, x2 = 0.8001 | – | 46.14
318.15 K, x2 = 0.8998 | – | 44.72
